Assay results published in patent publication US7282507B2, “Indole derivatives as selective androgen receptor modulators (SARMS)” (Janssen Pharmaceutica N.V., priority 2004, dated 2007).
Where “and” joins values, the source holds several entries; their conditions need not be identical. Identical values can stand only once.

Tests used:
[1] = biological target: T1, androgen receptor (rat ventral prostate cytosol) (Rattus norvegicus, UniProt P15207); experiment: Androgen Receptor Binding Using Rat Ventral Prostate Cytosol; details: for inhibition at 3 µM / % Inhibition, Androgen Receptor Binding (Rat Cytosol): Concentration 3000 nM
T1 construct: from tissue; host or cells: ventral prostate cytosol of castrated male Sprague Dawley or Wistar rats
T1 sequence (P15207 1-902): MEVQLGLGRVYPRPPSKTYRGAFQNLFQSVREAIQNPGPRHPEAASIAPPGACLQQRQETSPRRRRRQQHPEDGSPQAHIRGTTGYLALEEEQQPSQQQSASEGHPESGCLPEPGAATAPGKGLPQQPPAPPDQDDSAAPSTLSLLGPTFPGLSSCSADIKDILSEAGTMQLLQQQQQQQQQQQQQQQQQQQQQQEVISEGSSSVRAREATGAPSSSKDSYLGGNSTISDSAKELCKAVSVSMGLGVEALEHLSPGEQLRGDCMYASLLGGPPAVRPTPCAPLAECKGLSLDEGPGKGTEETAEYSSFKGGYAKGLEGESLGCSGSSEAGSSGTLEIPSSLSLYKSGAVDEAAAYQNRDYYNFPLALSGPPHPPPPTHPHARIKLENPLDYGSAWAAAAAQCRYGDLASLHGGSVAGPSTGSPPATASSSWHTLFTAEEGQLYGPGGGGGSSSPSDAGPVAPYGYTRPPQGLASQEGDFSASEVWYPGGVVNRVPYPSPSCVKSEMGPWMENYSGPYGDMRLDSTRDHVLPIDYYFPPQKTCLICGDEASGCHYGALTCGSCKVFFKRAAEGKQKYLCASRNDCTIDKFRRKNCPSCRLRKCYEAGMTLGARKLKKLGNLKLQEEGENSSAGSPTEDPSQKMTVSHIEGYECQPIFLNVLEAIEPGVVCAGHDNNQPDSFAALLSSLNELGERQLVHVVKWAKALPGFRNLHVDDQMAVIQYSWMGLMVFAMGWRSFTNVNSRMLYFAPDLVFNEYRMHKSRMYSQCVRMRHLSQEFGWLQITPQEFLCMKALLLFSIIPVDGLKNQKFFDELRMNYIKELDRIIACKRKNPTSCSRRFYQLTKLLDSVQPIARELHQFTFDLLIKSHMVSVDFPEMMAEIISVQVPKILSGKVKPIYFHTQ
Procedure, shortened: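 Cytosol from castrated rat ventral prostate was incubated overnight at 4°C with 0.5 nM [3H] tracer and compound in TED buffer (10 mM Tris-HCl pH 7.4, molybdate, EDTA, DTT, glycerol).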

[2] = system: testosterone-enhanced ventral prostate and seminal vesicle weights; experiment: Ventral Prostate and Seminal Vesicle Weight in vivo Assay; design: species or system rat; details: immature castrated male Sprague Dawley rats, once daily for five days, usually orally 40 mg/kg, with testosterone propionate 2 mg/kg s.c. Also: key: 'active' if the non weight adjusted prostate weight was ≦40 mg or the % Inhibition prostate weight, body weight adjusted was ≧40% @ 2 mg/day dosage; ID50's, if determined, of ≦15 mg/day also indicated an 'active' compound; listed herein as 'inactive' as they did not meet the specified criteria defined above.
Procedure, shortened: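 Wet weights of ventral prostate and seminal vesicles were taken on day six. Castrated immature male Sprague Dawley rats had received five daily doses of testosterone propionate (2 mg/kg s.c.) together with test compound, typically 40 mg/kg orally. Activity was scored from absolute prostate weight or body-weight-adjusted % inhibition.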

[3] = biological target: T2, androgen receptor LBD (Panvera) (Rattus norvegicus, UniProt P15207); experiment: Androgen Receptor Filtration Binding Assay (PANVERA); details: [3H] R1881 tracer 0.5 nM; read-out: IC50 (nM), Androgen Receptor Binding (Panvera)
T2 construct: 5 pmol androgen receptor LBD (Panvera); purchased Panvera
T2 sequence (P15207 651-882 limits assumed): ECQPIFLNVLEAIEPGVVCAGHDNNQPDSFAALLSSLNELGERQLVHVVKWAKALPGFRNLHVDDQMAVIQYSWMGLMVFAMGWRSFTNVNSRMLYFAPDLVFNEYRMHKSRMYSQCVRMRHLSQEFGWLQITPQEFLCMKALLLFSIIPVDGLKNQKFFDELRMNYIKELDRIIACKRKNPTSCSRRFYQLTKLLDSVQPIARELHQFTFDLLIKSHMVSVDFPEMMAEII

| Compound | inhibition at 3 µM [1] [%] | active / inactive: inhibition of testosterone-enhanced prostate weight [2] | also measured |
| --- | --- | --- | --- |
| CCSCC(O)(CC)c1cc2cc([N+](=O)[O-])c(C(F)(F)F)cc2[nH]1 (stereo not shown) [Compound 169] | 62 | active |  |
| CSCC(C)(O)c1cc2cc([N+](=O)[O-])c(C(F)(F)F)cc2[nH]1 (single isomer, unassigned) [Compound 144] |  |  | % Inhibition, Androgen Receptor Binding (Rat Cytosol) ([1]; 3 µM): 79% |
| CC(C)SCC(C)(O)c1cc2cc([N+](=O)[O-])c(C(F)(F)F)cc2[nH]1 (stereo not shown) [Compound 164] | 52 | inactive |  |
| CCSCC(C)(O)c1cc2cc([N+](=O)[O-])c(C(F)(F)F)cc2[nH]1 (single isomer, unassigned) [Compound 149] |  |  | % Inhibition, Androgen Receptor Binding (Rat Cytosol) ([1]; 3 µM): 94% and 77% |
| CCSCC(C)(O)c1cc2cc([N+](=O)[O-])c(C(F)(F)F)cc2[nH]1 (single isomer, unassigned) [Compound 150] |  |  | % Inhibition, Androgen Receptor Binding (Rat Cytosol) ([1]; 3 µM): 120% |
| CC(O)(CS(C)(=O)=O)c1cc2cc([N+](=O)[O-])c(C(F)(F)F)cc2[nH]1 (stereo not shown) [Compound 148] |  |  | % Inhibition, Androgen Receptor Binding (Rat Cytosol) ([1]; 3 µM): 94% |
| CC(O)(CS(C)(=O)=O)c1cc2cc(Cl)c(C(F)(F)F)cc2[nH]1 (stereo not shown) [Compound 138] | 110 | inactive |  |
| CCSCC(C)(O)c1cc2cc([N+](=O)[O-])c(C(F)(F)F)cc2n1S(C)(=O)=O (stereo not shown) [Compound 141] | -4.5 | inactive |  |
| COc1ccc(S(=O)(=O)CC(C)(O)c2cc3cc(Cl)c(C(F)(F)F)cc3[nH]2)cc1 (racemic) [Compound 129] |  | inactive | % Inhibition, Androgen Receptor Binding (Rat Cytosol) [1]: 39.5% |
| CCS(=O)(=O)CC(C)(O)c1cc2cc([N+](=O)[O-])c(C(F)(F)F)cc2[nH]1 (stereo not shown) [Compound 143] |  | active | % Inhibition, Androgen Receptor Binding (Rat Cytosol) ([1]; 3 µM): 14% |
| CC(O)(C[S+]([O-])Cc1ccccc1)c1cc2cc([N+](=O)[O-])c(C(F)(F)F)cc2[nH]1 (mixture of isomers) [Compound 161] |  | inactive | % Inhibition, Androgen Receptor Binding (Rat Cytosol) [1]: 39% |
| CCC(O)(CS(=O)(=O)CC)c1cc2cc([N+](=O)[O-])c(C(F)(F)F)cc2[nH]1 (stereo not shown) [Compound 176] | 90 | active |  |
| CSCC(C)(O)c1cc2cc(Cl)c(C(F)(F)F)cc2[nH]1 (stereo not shown) [Compound 135] | 130 | inactive |  |
| CSCC(C)(O)c1cc2cc(C#N)c(C(F)(F)F)cc2[nH]1 (stereo not shown) [Compound 136] | 38 | active |  |
| CC(O)(CSCc1ccccc1)c1cc2cc([N+](=O)[O-])c(C(F)(F)F)cc2[nH]1 (stereo not shown) [Compound 160] | 65 | inactive |  |
| CC(O)(CSc1ccc([N+](=O)[O-])cc1)c1cc2cc(Cl)c(C(F)(F)F)cc2[nH]1 (stereo not shown) [Compound 122] | 83.5 |  |  |
| CCS(=O)(=O)C[C@](C)(O)c1cc2cc([N+](=O)[O-])c(C(F)(F)F)cc2[nH]1 [Compound 156, 1-Ethanesulfonyl-2-(5-nitro-6-trifluoromethyl-1H-indol-2-yl)-propan-2-ol] | 66 | inactive | % Inhibition, Androgen Receptor Binding (Rat Cytosol) ([1]; 3 µM): 67% |
| CC(O)(CCS(C)(=O)=O)c1cc2cc([N+](=O)[O-])c(C(F)(F)F)cc2[nH]1 (stereo not shown) [Compound 49] | 48 | inactive |  |
| CCSCC(C)(O)c1cc2cc([N+](=O)[O-])c(C(F)(F)F)cc2n1C (racemic) [Compound 165] | 52 | active |  |

| Compound | inhibition at 3 µM [1] [%] | active / inactive: inhibition of testosterone-enhanced prostate weight [2] | also measured |
| --- | --- | --- | --- |
| CCSCC(C)(O)c1cc2cc([N+](=O)[O-])c(C(F)(F)F)cc2[nH]1 (racemic) [Compound 142] | 92 | active |  |
| CC(C)CSCC(C)(O)c1cc2cc([N+](=O)[O-])c(C(F)(F)F)cc2[nH]1 (stereo not shown) [Compound 170] | 80 | active |  |
| CC[S+]([O-])C[C@](C)(O)c1cc2cc([N+](=O)[O-])c(C(F)(F)F)cc2[nH]1 (stereo in doubt) [Compound 155, 1-Ethanesulfinyl-2-(5-nitro-6-trifluoromethyl-1H-indol-2-yl)-propan-2-ol] | -6.1 | inactive |  |
| CCSCC(O)c1cc2cc([N+](=O)[O-])c(C(F)(F)F)cc2[nH]1 (stereo not shown) [Compound 158] | 52 | inactive |  |
| CC(O)(CSc1ccc(N)cc1)c1cc2cc(Cl)c(C(F)(F)F)cc2[nH]1 (stereo not shown) [Compound 104] | 110 | inactive | IC50 [3]: 930 nM; inhibition at 1 µM ([1]; Concentration 1000 nM, read-out: % Inhibition, Androgen Receptor Binding (Rat Cytosol)): 94.5% |
| CSCCC(C)(O)c1cc2cc([N+](=O)[O-])c(C(F)(F)F)cc2[nH]1 (stereo not shown) [Compound 47] | 81 | inactive |  |
| CSCC(C)(O)c1cc2cc([N+](=O)[O-])c(C(F)(F)F)cc2[nH]1 (single isomer, unassigned) [Compound 145] |  |  | % Inhibition, Androgen Receptor Binding (Rat Cytosol) ([1]; 3 µM): 58% |
| CC(O)(CSC1CCCC1)c1cc2cc([N+](=O)[O-])c(C(F)(F)F)cc2[nH]1 (stereo not shown) [Compound 173] | 32 | inactive |  |
| CCS(=O)(=O)CC(C)(O)c1cc2cc([N+](=O)[O-])c(C(F)(F)F)cc2[nH]1 (stereo not shown) [Compound 151] |  |  | % Inhibition, Androgen Receptor Binding (Rat Cytosol) ([1]; 3 µM): 100% |
| CC(O)(CSc1ccc(O)cc1)c1cc2cc(Cl)c(C(F)(F)F)cc2[nH]1 (stereo not shown) [Compound 120] | 130 |  |  |
| CC(O)(CS(=O)(=O)c1ccc(O)cc1)c1cc2cc(Cl)c(C(F)(F)F)cc2[nH]1 (stereo not shown) [Compound 121] | 86 |  |  |
| CC(O)(CSCC(F)(F)F)c1cc2cc([N+](=O)[O-])c(C(F)(F)F)cc2[nH]1 (stereo not shown) [Compound 171] | 18 | active | IC50 ([1]; read-out: IC50 (nM), Androgen Receptor Binding (Rat Cytosol)): 320 nM |
| COc1ccc(SCC(C)(O)c2cc3cc(Cl)c(C(F)(F)F)cc3[nH]2)cc1 (stereo not shown) [Compound 131] | 120 | inactive |  |
| CCCSCC(C)(O)c1cc2cc([N+](=O)[O-])c(C(F)(F)F)cc2[nH]1 (stereo not shown) [Compound 168] | 41 | inactive |  |
| COc1ccc(SCC(C)(O)c2cc3cc(Cl)c(C(F)(F)F)cc3n2S(C)(=O)=O)cc1 (racemic) [Compound 130] |  |  | % Inhibition, Androgen Receptor Binding (Rat Cytosol) [1]: 32.55% |
| CC(O)(CS(=O)(=O)c1ccc(N)cc1)c1cc2cc(Cl)c(C(F)(F)F)cc2[nH]1 (stereo not shown) [Compound 118] | 80.5 | inactive |  |
| CC(O)(CS(C)(=O)=O)c1cc2cc([N+](=O)[O-])c(C(F)(F)F)cc2[nH]1 (stereo not shown) [Compound 140] |  | active | % Inhibition, Androgen Receptor Binding (Rat Cytosol) ([1]; 3 µM): 47% |
| CC(O)(CS(C)(=O)=O)c1cc2cc([N+](=O)[O-])c(C(F)(F)F)cc2[nH]1 (stereo not shown) [Compound 147] |  |  | % Inhibition, Androgen Receptor Binding (Rat Cytosol) ([1]; 3 µM): 68% |
